For four compounds, carcinogen call results are on record in PubChem BioAssay AID1259411 (Chemical Carcinogenesis Research Information System (CCRIS), 2018).

The series has as its system rodent carcinogenicity bioassays, tumor incidence. The series can be described thus: CCRIS carcinogenicity studies. An outline of the steps:
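NCI-built, expert-reviewed records of carcinogenicity and related test outcomes (mutagenicity, tumor promotion/inhibition) compiled from published and report sources, historical span 1985-2011, not updated.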

The source made the active and inactive calls. No rule for the calls is given here.

In the case of `[O-][Br+2]([O-])O`, the carcinogen call (Species: Hamster, Strain/Sex: Syrian golden/Male (20/group), Route: Oral, Dose: 0, 125, 250, 500, 2000 ppm in drinking water for 89 wk, study duration 89 wk, Dose: 0, 125, 250, 500, 2000 ppm in drinking water for 89 wk, study duration 89 wk, Tumor Site: Type of Lesion: Kidney: Renal adenoma (0/20, 0/20, 1/20, 2/20, 4/20)) was “active; positive”; the carcinogen call (Species: Mouse, Strain/Sex: B6C3F1, BDF1, and CDF1/Male (27/experimental group, 15/control group), Route: Oral, Dose: 0, 750 ppm in drinking water for 88 wk, study duration 88 wk, Tumor Site: Type of Lesion: Kidney: Renal adenoma and carcinoma - B6C3F1: 0/15 (controls), 3/26 (750 ppm), BDF1: 0/15 (controls),1/27 (750 ppm), CDF, Tumor Site: Type of Lesion: Kidney: Renal adenoma and carcinoma - B6C3F1: 0/15 (controls), 3/26 (750 ppm), BDF1: 0/15 (controls),1/27 (750 ppm), CDF) was “active; positive”; the carcinogen call (Species: Mouse, Strain/Sex: B6C3F1/Female (25/ group), Route: Oral, Dose: 0, 500, 1000 ppm in drinking water for 78 wk, followed by tap water for 26 wk, study duration 104 wk, Dose: 0, 500, 1000 ppm in drinking water for 78 wk, followed by tap water for 26 wk, study duration 104 wk) was “inactive; negative”; the carcinogen call (Species: Mouse, Strain/Sex: Ogg1 wild type/Female (15/15)/(13/15), Route: Oral, Dose: 2 g/l in drinking water for 18 wk followed by 1 g/l in drinking water for 11 wk (Study duration: 52 wk)) was “inactive; negative (kidney, liver, lung, spleen, thymus, stomach, and intestine examined);”; the carcinogen call (Species: Mouse, Strain/Sex: Ogg1 wild type/Male (13/15)/(15/15), Route: Oral, Dose: 2 g/l in drinking water for 18 wk followed by 1 g/l in drinking water for 11 wk (Study duration: 52 wk)) was “inactive; negative (kidney, liver, lung, spleen, thymus, stomach and intestine examined);”; the carcinogen call (Species: RAT, Strain/Sex: F344/FEMALE, Route: ORAL, Dose: 250, 500 PPM IN DRINKING WATER FOR 110 WK, Tumor Site: Type of Lesion: KIDNEY: RENAL CELL ADENOMA, RENAL CELL ADENOCARCINOMA) was “active; positive”. Also, the carcinogen call is “active; positive” (Species: RAT, Strain/Sex: F344/MALE, Route: ORAL, Dose: 0, 0.02, 0.1, 0.2, 0.4 G/L IN DRINKING WATER FOR 52, 78, OR 100 WK (STUDY DURATION: 100 WK), Dose: 0, 0.02, 0.1, 0.2, 0.4 G/L IN DRINKING WATER FOR 52, 78, OR 100 WK (STUDY DURATION: 100 WK), Tumor Site: Type of Lesion: TESTICLE: MESOTHELIOMA, KIDNEY: RENAL CELL TUMOR, THYROID: TUMOR, Tumor Site: Type of Lesion: TESTICLE: MESOTHELIOMA, KIDNEY: RENAL CELL TUMOR, THYROID: TUMOR); “active; positive” (Species: RAT, Strain/Sex: F344/MALE, Route: ORAL, Dose: 250, 500 PPM IN DRINKING WATER (HIGH DOSE REDUCED TO 400 PPM AT WK 60), Tumor Site: Type of Lesion: KIDNEY: RENAL CELL ADENOMA, RENAL CELL ADENOCARCINOMA, PERITONEAL CAVITY: MESOTHELIOMA); “active; positive” (Species: Rat, Strain/Sex: F344 (20-41/group), Route: Oral, Dose: 0, 300, 600 mg/kg single intragastric administration, study duration 87 wk, Dose: 0, 300, 600 mg/kg single intragastric administration, study duration 87 wk, Tumor Site: Type of Lesion: Kidney: Renal adenoma and carcinoma (0/20, 0/20, 4/41)); “active; positive” (Species: Rat, Strain/Sex: F344/Male (14-20/group), Route: Oral, Dose: 500 ppm in drinking water for 13, 26, 39, and 52 wk followed by drinking water for a study duration of 104 wk, Tumor Site: Type of Lesion: Kidney: Adenoma (10/20, 9/19,13/19, 8/14), Adenocarcinoma (2/20, 1/19, 6/19, 3/14). Peritoneum: Mesothelioma (6/20, 8/19); “active; positive” (Species: Rat, Strain/Sex: F344/Male (20-24/group), Route: Oral, Dose: 0, 15, 30, 60, 125, 250, 500 ppm in drinking water for 104 wk, Dose: 0, 15, 30, 60, 125, 250, 500 ppm in drinking water for 104 wk, Tumor Site: Type of Lesion: Kidney: Renal adenoma (0/19, 0/19, 0/20, 1/24, 5/24, 5/20, 6/20) and adenocarcinoma (0/19, 0/19, 0/20, 0/24, 0/24, 0/20); “inactive; negative” (Species: Rat, Strain/Sex: Fischer 344/Female (50/group), Route: Oral, Dose: 0, 10, 30, 50 mg/kg/day by gavage once daily for 104 wk, Dose: 0, 10, 30, 50 mg/kg/day by gavage once daily for 104 wk). Also, the carcinogen call (Species: Rat, Strain/Sex: Fischer 344/Male (50/group), Route: Oral, Dose: 0, 10, 30, 50 mg/kg/day by gavage once daily for 104 wk, Dose: 0, 10, 30, 50 mg/kg/day by gavage once daily for 104 wk) was “inactive; negative”.

As to `C=C(C)CN(CC)c1c([N+](=O)[O-])cc(C(F)(F)F)cc1[N+](=O)[O-]`, the carcinogen call runs as follows: (Species: Mouse, Strain/Sex: B6C3F1/Female (40/Experimental group; 60/Control group), Route: Oral, Dose: 0, 100, 400, 1500 ppm of 94.5% ethalfluralin in diet for 2 yr, study duration 2 yr (2 replicate studies)., Dose: 0, 100, 400, 1500 ppm of 94.5% ethalfluralin in diet for 2 yr, study duration 2 yr (2 replicate studies).) “inactive; negative”; (Species: Mouse, Strain/Sex: B6C3F1/Male (40/Experimental group; 60/Control group), Route: Oral, Dose: 0, 100, 400, 1500 ppm of 94.5% ethalfluralin in diet for 2 yr, study duration 2 yr (2 replicate studies)., Dose: 0, 100, 400, 1500 ppm of 94.5% ethalfluralin in diet for 2 yr, study duration 2 yr (2 replicate studies).) “inactive; negative”; (Species: Rat, Strain/Sex: Fischer 344/Female (30/Group; replicate studies using 94.5% ethalfluralin), Route: Oral, Dose: 0, 0.01, 0.025, 0.075% (0; 4.2; 10.7; 32.3 mg/kg/d) in diet for 2 yr, study duration 2 yr, Dose: 0, 0.01, 0.025, 0.075% (0; 4.2; 10.7; 32.3 mg/kg/d) in diet for 2 yr, study duration 2 yr, Tumor Site: Type of Lesion: Mammary gland: Benign fibroadenomas) “active; positive”; (Species: Rat, Strain/Sex: Fischer 344/Male (30/Group; replicate studies using 94.5% ethalfluralin), Route: Oral, Dose: 0, 0.01, 0.025, 0.075% (0; 4.2; 10.7; 32.3 mg/kg/d) in diet for 2 yr, study duration 2 yr, Dose: 0, 0.01, 0.025, 0.075% (0; 4.2; 10.7; 32.3 mg/kg/d) in diet for 2 yr, study duration 2 yr) “inactive; negative”.

Consider `Nc1c(Cl)c(Cl)nc(C(=O)O)c1Cl`, for which the carcinogen call (Species: MOUSE, Strain/Sex: B6C3F1/FEMALE, Route: ORAL, Dose: 0, 2531, 5062 PPM IN DIET FOR 80 WK (STUDY DURATION: 90 WK), Dose: 0, 2531, 5062 PPM IN DIET FOR 80 WK (STUDY DURATION: 90 WK)) was “inactive; negative”; the carcinogen call (Species: MOUSE, Strain/Sex: B6C3F1/MALE, Route: ORAL, Dose: 0, 2531, 5062 PPM IN DIET FOR 80 WK (STUDY DURATION: 90 WK), Dose: 0, 2531, 5062 PPM IN DIET FOR 80 WK (STUDY DURATION: 90 WK)) is “inactive; negative”; the carcinogen call (Species: RAT, Strain/Sex: F344/FEMALE, Route: ORAL, Dose: 0, 20, 60, 200 MG/KG/D OF TECHNICAL GRADE PICLORAM IN FEED FOR 2 YR (STUDY DURATION: 2 YR), Dose: 0, 20, 60, 200 MG/KG/D OF TECHNICAL GRADE PICLORAM IN FEED FOR 2 YR (STUDY DURATION: 2 YR)) was “inactive; negative”; the carcinogen call (Species: RAT, Strain/Sex: F344/MALE, Route: ORAL, Dose: 0, 20, 60, 200 MG/KG/D OF TECHNICAL GRADE PICLORAM IN FEED FOR 2 YR (STUDY DURATION: 2 YR), Dose: 0, 20, 60, 200 MG/KG/D OF TECHNICAL GRADE PICLORAM IN FEED FOR 2 YR (STUDY DURATION: 2 YR)) is “inactive; negative”; the carcinogen call (Species: RAT, Strain/Sex: OSBORNE-MENDEL/FEMALE, Route: ORAL, Dose: 0, 7437, 14875 PPM IN DIET FOR 80 WK (STUDY DURATION: 113 WK), Dose: 0, 7437, 14875 PPM IN DIET FOR 80 WK (STUDY DURATION: 113 WK), Tumor Site: Type of Lesion: LIVER: NEOPLASTIC NODULE) is “equivocal”; the carcinogen call (Species: RAT, Strain/Sex: OSBORNE-MENDEL/MALE, Route: ORAL, Dose: 0, 7437, 14875 PPM IN DIET FOR 80 WK (STUDY DURATION: 113 WK), Dose: 0, 7437, 14875 PPM IN DIET FOR 80 WK (STUDY DURATION: 113 WK)) is “inactive; negative”.

Take `C=CCOC(=O)CC(C)C`: the carcinogen call is, setting by setting: (Species: MOUSE, Strain/Sex: B6C3F1/FEMALE, Route: GAVAGE, Dose: 0, 31, 62 MG/KG IN CORN OIL FOR 103 WK, Dose: 0, 31, 62 MG/KG IN CORN OIL FOR 103 WK, Tumor Site: Type of Lesion: LYMPHATIC SYSTEM: MALIGNANT LYMPHOMA) “active; positive”; (Species: RAT, Strain/Sex: F344/MALE, Route: GAVAGE, Dose: 0, 31, 62 MG/KG IN CORN OIL FOR 103 WK, Dose: 0, 31, 62 MG/KG IN CORN OIL FOR 103 WK, Tumor Site: Type of Lesion: HEMATOPOIETIC SYSTEM (LEUKEMIA): MONONUCLEAR CELL LEUKEMIA) “active; positive”.
